Measured values as given in US20240115586A1, “THERAPEUTIC AGENT FOR PULMONARY FIBROSIS” (SANSHO CO. LTD., priority 2020, published 2024).

Tested on: bleomycin-induced pulmonary fibrosis model mice
Experiment: Effect on right lung wet weight, dry weight and hydroxyproline in bleomycin-induced pulmonary fibrosis model mice
Assay type: in vivo, Mouse Crl:CD1(ICR)
Conditions: Day 28, mean ± S.E.M., N=9; for Dry weight of right lung: Control 0.0348 ± 0.0017, Normal 0.0236 ± 0.0007; for Wet weight of right lung: Control 0.1735 ± 0.0087, Normal 0.1224 ± 0.0029; for Hydroxyproline (right lung): Control 354.9 ± 15.1, Normal 266.9 ± 6.4
Method: • Japanese Pharmacopoeia: Physiological saline solution (saline solution) • (2) Test system • Mouse Crl:CD1(ICR), 45 mice, male, purchased from Charles River Japan K.K. (11 weeks old at time of purchase)
The test substance was divided into 6 mg×28 doses prior to the day of administration. Dose solution was prepared on the day of administration. To one bottle of the previously aliquoted test substance (6 mg), 6 mL of saline solution was added and mixed by inverting. The samples were heated (approximately 40° C.) and sonicated until dissolution was visually confirmed (1 mg/mL solution). The 1 mg/mL solution was divided into 0.5 mL portions, and 4.5 mL of saline solution was added. Dissolution was confirmed by inverting and mixing (0.1 mg/mL solution).
The route of administration was intraperitoneal administration.
It was administered once per day for 28 days. Administration at the time of preparation of the pulmonary fibrosis model (Day 0 to Day 4) was before administration of bleomycin.
10 mL/kg was administered intraperitoneally using a 1 mL syringe and needle (Terumo Corporation).
The bleomycin solution was administered into the tail vein of mice at a dose volume of 5 mL/kg (bleomycin dose: 15 mg/kg) once a day for 5 days. The volume of administered liquid was calculated based on the latest body weight and calculated to the nearest 0.01 mL (rounded to the third decimal place). The normal group was administered physiological saline at a volume of 5 mL/kg.
After lethal exsanguination, the right bronchial bifurcation was ligated, and only the right lung was removed. The wet weight of the excised right lung was measured. After weighing, the right lung was minced. After that, the right lung was dried in a dry heat sterilizer set at 72° C. for about 72 hours, and the dry weight of the right lung was measured. After measuring the dry weight, it was stored in an ultra-low temperature freezer (permissible range: −90 to −65° C.) until the amount of hydroxyproline was measured. The left lung was ligated and fixed after a cannula was inserted into the trachea, and a 10% phosphate-buffered formalin solution was injected through the cannula at a pressure of 15 cm H2O to expand and fix the lung tissue. Lung sampling was performed on animals from which blood collection was performed. A fixed left lung is undergoing histopathological examination.
The hydroxyproline content of the right lung cryopreserved in section (6-5) was measured. 2 mL of HCl for hydrolysis was added to the dried right lung and the sample was hydrolyzed in an autoclave at about 121° C. for 30 minutes. After that, it was neutralized with 2.5 N NaOH (pH about 6 to 7: pH test paper was used for confirmation). By measuring the tare weight in advance and measuring the weight after neutralization, the amount (g) of the sample after neutralization was calculated. The sample after neutralization was appropriately diluted with water for injection, and 2 mL of the solution was used as a sample for measurement of HYP content.
1 mL of chloramine T reagent was added to 2 mL of the HYP standard solution and the mixture was left stand at room temperature for 20 minutes. Then, 1 mL of perchloric acid reagent was added and the mixture was left stand at room temperature for 5 minutes. After adding 1 mL of p-dimethylaminobenzaldehyde reagent and heating at 60° C. for 20 minutes, the absorbance at 557 nm of the supernatant which was obtained by filtration using a filter was measured with a spectrophotometer to create a calibration curve.
For 2 mL of each sample for measurement of HYP content, the absorbance was measured in the same manner as described in Section 3.6.6.2, and the HYP content (μg/mL) was calculated from the measured values based on the calibration curve obtained in Section 3.6.6.2. Each sample for measurement of HYP content was diluted 20-fold and was measured. Single measurement was used. […]

[1] = 2ccPA 1 mg/kg intraperitoneal once per day for 28 days
[2] = 2ccPA 10 mg/kg intraperitoneal once per day for 28 days

2-Carbacyclic phosphatidic acid [2ccPA]
Dry weight of right lung [1]: 0.0327 ± 0.0021 g | Wet weight of right lung [1]: 0.1599 ± 0.0113 g | Hydroxyproline (right lung) [1]: 331.2 ± 20.0 μg/lung | Dry weight of right lung [2]: 0.0303 ± 0.0011 g | Wet weight of right lung [2]: 0.1458 ± 0.0044 g | Hydroxyproline (right lung) [2]: 288.8 ± 11.1 μg/lung
